Experimental data reported in ChEMBL document CHEMBL1909046, “DrugMatrix in vitro pharmacology data”.

Tests used:
Mu-type opioid receptor = Mu-type opioid receptor (Homo sapiens, UniProt P35372); test: DRUGMATRIX: Opiate mu (OP3, MOP) radioligand binding (ligand: [3H] Diprenorphine); type: cell membranes, CHO-K1, Membrane; conditions: Not Active = under 50% inhibition at 10 µM
[1] = DRUGMATRIX: Leukotriene, BLT (LTB4) radioligand binding (ligand: [3H]LTB4); type: cell membranes, Membrane; conditions: u-937, Not Active = under 50% inhibition at 10 µM
[2] = DRUGMATRIX: ATPase, Na+/K+ enzyme inhibition (substrate: ATP); type: tissue-based, Sus scrofa, Heart; conditions: Not Active = under 50% inhibition at 10 µM
Cytochrome P450 2D6 = Cytochrome P450 2D6 (Homo sapiens, UniProt P10635); conditions: bti-tn-5b1-4; note: in other assays of this panel Not Active means under 50% inhibition at 10 µM
[3] = biological target: T1, Alpha-1B adrenergic receptor (Rattus norvegicus, UniProt P15823); test: DRUGMATRIX: Alpha-1B adrenergic receptor radioligand binding (ligand: prazosin); type: cell membranes, Wistar, Liver, Membrane; conditions: Not Active = under 50% inhibition at 10 µM
T1 sequence (P15823 whole entry): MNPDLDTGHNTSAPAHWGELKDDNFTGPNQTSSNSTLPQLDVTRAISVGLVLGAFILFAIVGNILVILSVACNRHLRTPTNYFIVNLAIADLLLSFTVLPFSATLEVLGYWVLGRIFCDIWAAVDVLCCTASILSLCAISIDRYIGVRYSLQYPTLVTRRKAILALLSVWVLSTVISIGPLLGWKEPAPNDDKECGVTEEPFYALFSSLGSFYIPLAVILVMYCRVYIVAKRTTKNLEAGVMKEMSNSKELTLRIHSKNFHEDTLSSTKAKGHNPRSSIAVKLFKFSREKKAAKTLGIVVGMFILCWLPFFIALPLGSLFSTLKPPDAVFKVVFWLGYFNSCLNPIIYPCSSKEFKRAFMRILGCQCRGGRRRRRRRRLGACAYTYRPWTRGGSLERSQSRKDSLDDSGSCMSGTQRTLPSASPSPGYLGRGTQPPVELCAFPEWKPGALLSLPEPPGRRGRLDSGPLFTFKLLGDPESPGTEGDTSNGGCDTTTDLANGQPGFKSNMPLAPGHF

[4] = DRUGMATRIX: Calcium Channel Type L, Benzothiazepine radioligand binding (ligand: [3H] Diltiazem); type: cell membranes, Rattus norvegicus, Wistar, Brain, Membrane; conditions: Not Active = under 50% inhibition at 10 µM
Cytochrome P450 2C9 = Cytochrome P450 2C9 (Homo sapiens, UniProt P11712); conditions: bti-tn-5b1-4; note: in other assays of this panel Not Active means under 50% inhibition at 10 µM
Chain of Cytochrome P450 2C9 (P11712 whole entry): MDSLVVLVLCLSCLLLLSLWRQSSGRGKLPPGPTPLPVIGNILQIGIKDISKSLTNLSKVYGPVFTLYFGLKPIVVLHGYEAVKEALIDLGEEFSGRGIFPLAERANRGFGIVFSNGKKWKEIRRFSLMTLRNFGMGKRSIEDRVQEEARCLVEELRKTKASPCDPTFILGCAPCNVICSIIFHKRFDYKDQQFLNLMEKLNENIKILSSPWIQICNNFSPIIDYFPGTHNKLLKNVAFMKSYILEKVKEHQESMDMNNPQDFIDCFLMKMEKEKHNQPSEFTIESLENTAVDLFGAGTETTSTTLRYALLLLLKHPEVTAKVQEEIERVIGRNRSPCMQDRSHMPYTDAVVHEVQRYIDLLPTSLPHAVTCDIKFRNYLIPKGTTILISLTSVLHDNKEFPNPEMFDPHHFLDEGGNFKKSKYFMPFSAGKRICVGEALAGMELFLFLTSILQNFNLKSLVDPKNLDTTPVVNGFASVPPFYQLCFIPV

Chain of Mu-type opioid receptor (P35372 whole entry): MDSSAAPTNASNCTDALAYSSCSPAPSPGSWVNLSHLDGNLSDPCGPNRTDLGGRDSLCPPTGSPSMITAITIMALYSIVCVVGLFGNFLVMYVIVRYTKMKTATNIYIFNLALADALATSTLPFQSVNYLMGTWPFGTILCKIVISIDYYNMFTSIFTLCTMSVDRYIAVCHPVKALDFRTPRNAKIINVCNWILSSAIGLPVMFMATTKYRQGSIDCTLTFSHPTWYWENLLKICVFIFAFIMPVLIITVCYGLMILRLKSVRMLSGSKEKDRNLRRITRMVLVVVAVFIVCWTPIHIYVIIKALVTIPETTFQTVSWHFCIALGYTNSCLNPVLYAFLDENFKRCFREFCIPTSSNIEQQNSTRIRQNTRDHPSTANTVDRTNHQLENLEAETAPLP
Chain of Cytochrome P450 2D6 (P10635 whole entry): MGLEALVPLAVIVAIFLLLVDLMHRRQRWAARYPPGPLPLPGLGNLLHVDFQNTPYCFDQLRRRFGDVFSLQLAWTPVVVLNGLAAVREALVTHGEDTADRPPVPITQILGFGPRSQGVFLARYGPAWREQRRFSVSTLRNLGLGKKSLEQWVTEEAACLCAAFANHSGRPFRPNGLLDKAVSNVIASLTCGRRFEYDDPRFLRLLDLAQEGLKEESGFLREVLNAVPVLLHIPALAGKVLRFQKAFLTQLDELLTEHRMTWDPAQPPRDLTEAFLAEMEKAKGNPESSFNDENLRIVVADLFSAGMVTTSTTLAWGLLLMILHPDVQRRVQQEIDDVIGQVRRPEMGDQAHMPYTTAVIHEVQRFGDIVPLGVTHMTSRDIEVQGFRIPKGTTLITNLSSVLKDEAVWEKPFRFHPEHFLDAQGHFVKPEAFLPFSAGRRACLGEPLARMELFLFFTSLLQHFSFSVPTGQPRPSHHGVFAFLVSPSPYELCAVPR

Compound	IC50 (Mu-type opioid receptor; cho-k1)	IC50 [1]	Ki [1]	IC50 [2]	Ki [2]	IC50 (Cytochrome P450 2D6)	Ki (Cytochrome P450 2D6)	IC50 [3]	IC50 [4]	Ki [4]	IC50 (Cytochrome P450 2C9)	Ki (Cytochrome P450 2C9)	Ki (Mu-type opioid receptor)	IC50 (Mu-type opioid receptor; read-out: IC50)	IC50 ([4]; read-out: IC50)	Ki ([4]; read-out: Ki)	IC50 ([1]; read-out: IC50)	Ki ([1]; read-out: Ki)	Ki [3]
CCCCC(=O)N(Cc1ccc(-c2ccccc2-c2nnn[nH]2)cc1)[C@H](C(=O)O)C(C)C	Not Active	Not Active	Not Active	Not Active	Not Active	Not Active	Not Active	Not Active	Not Active	Not Active	Not Active	Not Active	–	–	–	–	–	–	–
O=C(O)COc1ccc(C(=O)c2cccs2)c(Cl)c1Cl	Not Active	Not Active	Not Active	Not Active	Not Active	Not Active	Not Active	Not Active	Not Active	Not Active	Not Active	Not Active	–	–	–	–	–	–	–
CN1[C@@H]2CC[C@H]1C[C@@H](OC(c1ccccc1)c1ccccc1)C2 [BENZTROPINE]	Not Active	–	–	–	–	Not Active	Not Active	–	–	–	Not Active	Not Active	–	–	–	–	–	–	–
C[C@@](Cc1ccc(O)c(O)c1)(NN)C(=O)O.O [CARBIDOPA]	Not Active	Not Active	Not Active	Not Active	Not Active	Not Active	Not Active	Not Active	Not Active	Not Active	Not Active	Not Active	–	–	–	–	–	–	–
CN1CCN(C2=Nc3cc(Cl)ccc3Nc3ccccc32)CC1 [CLOZAPINE]	Not Active	–	–	–	–	Not Active	Not Active	–	–	–	Not Active	Not Active	–	–	–	–	–	–	–
CC(C)NC[C@@H](O)COc1cccc2ccccc12 [DEXPROPRANOLOL]	Not Active	–	–	–	–	Not Active	Not Active	–	–	–	Not Active	Not Active	–	–	–	–	–	–	–
CC(C)NC[C@H](O)COc1cccc2ccccc12 [LEVOPROPRANOLOL]	Not Active	–	–	–	–	Not Active	Not Active	–	–	–	Not Active	Not Active	–	–	–	–	–	–	–
O=C(O)CCCCC1CCSS1 (stereo not drawn) [LIPOIC ACID, ALPHA]	Not Active	Not Active	Not Active	Not Active	Not Active	Not Active	Not Active	Not Active	Not Active	Not Active	Not Active	Not Active	–	–	–	–	–	–	–
CN(C)C(=O)C(CCN1CCC(O)(c2ccc(Cl)cc2)CC1)(c1ccccc1)c1ccccc1 [LOPERAMIDE]	–	–	–	–	–	–	–	–	–	–	Not Active	Not Active	–	–	–	–	–	–	–
Clc1ccc(COC(Cn2ccnc2)c2ccc(Cl)cc2Cl)c(Cl)c1 (configuration not stated) [MICONAZOLE]	–	–	–	–	–	–	–	–	–	–	–	–	2460 nM	6.06 µM	–	–	–	–	–
C[C@]12C=CC(=O)C=C1CC[C@@H]1[C@@H]2C(=O)C[C@@]2(C)[C@H]1CC[C@]2(O)C(=O)CO [PREDNISONE]	Not Active	Not Active	Not Active	Not Active	Not Active	–	–	Not Active	Not Active	Not Active	–	–	–	–	–	–	–	–	–
OCCOCCN1CCN(C2=Nc3ccccc3Sc3ccccc32)CC1 [QUETIAPINE]	Not Active	–	–	–	–	Not Active	Not Active	–	–	–	Not Active	Not Active	–	–	–	–	–	–	–
COC(=O)[C@H]1[C@H]2C[C@@H]3c4[nH]c5cc(OC)ccc5c4CCN3C[C@H]2C[C@@H](OC(=O)c2cc(OC)c(OC)c(OC)c2)[C@@H]1OC [RESERPINE]	–	Not Active	Not Active	Not Active	Not Active	Not Active	Not Active	Not Active	–	–	Not Active	Not Active	1690 nM	4.15 µM	3710 nM	3300 nM	–	–	–
O=C(O)c1ccccc1O [SALICYLIC ACID]	–	Not Active	Not Active	Not Active	Not Active	Not Active	Not Active	Not Active	Not Active	Not Active	Not Active	Not Active	–	–	–	–	–	–	–
C[S+]([O-])c1ccc(-c2nc(-c3ccncc3)c(-c3ccc(F)cc3)[nH]2)cc1 (configuration not stated) [SB-203580]	Not Active	–	–	–	–	–	–	–	–	–	–	–	–	–	–	–	–	–	–
CC1CCC(NC(=O)N(CCCl)N=O)CC1 (configuration not stated) [SEMUSTINE]	Not Active	Not Active	Not Active	Not Active	Not Active	Not Active	Not Active	Not Active	Not Active	Not Active	Not Active	Not Active	–	–	–	–	–	–	–
O=C1C[C@@H]2OCC=C3CN4CC[C@]56c7ccccc7N1[C@H]5[C@H]2[C@H]3C[C@H]46 [STRYCHNINE]	–	Not Active	Not Active	Not Active	Not Active	Not Active	Not Active	Not Active	Not Active	Not Active	–	–	–	–	–	–	–	–	–
C[N+](C)(C)CCOC(=O)CCC(=O)OCC[N+](C)(C)C.[Cl-].[Cl-] [SUCCINYLCHOLINE CHLORIDE]	Not Active	Not Active	Not Active	Not Active	Not Active	Not Active	Not Active	Not Active	Not Active	Not Active	Not Active	Not Active	–	–	–	–	–	–	–
Nc1ccc(S(=O)(=O)NC(=O)c2ccccc2)cc1 [SULFABENZAMIDE]	Not Active	Not Active	Not Active	Not Active	Not Active	Not Active	Not Active	Not Active	Not Active	Not Active	Not Active	Not Active	–	–	–	–	–	–	–
CCCCCCCCNC(C)C(O)c1ccc(SC(C)C)cc1 (configuration not stated) [SULOCTIDIL]	Not Active	–	–	Not Active	Not Active	Not Active	Not Active	Not Active	–	–	Not Active	Not Active	–	–	171 nM	152 nM	1440 nM	366 nM	–
O=c1[nH]c(=O)n(C2CCCO2)cc1F (configuration not stated) [TEGAFUR]	Not Active	Not Active	Not Active	Not Active	Not Active	Not Active	Not Active	Not Active	Not Active	Not Active	Not Active	Not Active	–	–	–	–	–	–	–
CC(=N)S [THIOACETAMIDE]	Not Active	Not Active	Not Active	Not Active	Not Active	Not Active	Not Active	Not Active	Not Active	Not Active	Not Active	Not Active	–	–	–	–	–	–	–
Cc1ccc(C(=O)c2ccc(CC(=O)O)n2C)cc1 [TOLMETIN]	Not Active	Not Active	Not Active	Not Active	Not Active	Not Active	Not Active	Not Active	Not Active	Not Active	Not Active	Not Active	–	–	–	–	–	–	–
CC(=O)OCC(COC(C)=O)OC(C)=O [TRIACETIN]	Not Active	Not Active	Not Active	Not Active	Not Active	Not Active	Not Active	Not Active	Not Active	Not Active	Not Active	Not Active	–	–	–	–	–	–	–
CN1CCN(CCCN2c3ccccc3Sc3ccc(C(F)(F)F)cc32)CC1 [TRIFLUOPERAZINE]	Not Active	Not Active	Not Active	Not Active	Not Active	–	–	Not Active	Not Active	Not Active	–	–	–	–	–	–	–	–	–
TRANSPLATIN	–	Not Active	Not Active	Not Active	Not Active	Not Active	Not Active	Not Active	Not Active	Not Active	Not Active	Not Active	–	–	–	–	–	–	Not Active
ZIRCONIUM(IV) CHLORIDE	–	Not Active	Not Active	Not Active	Not Active	Not Active	Not Active	Not Active	Not Active	Not Active	Not Active	Not Active	–	–	–	–	–	–	Not Active
